Consider three compounds from the NIST ThermoML archive (doi:10.1007/s10765-011-1111-y).

Values joined by “and” are separate entries in the source; they are usually repeats but may differ in a detail not shown here. Equal values may be shown once. Numbers after ± are expanded uncertainties.

The series in a line: mn = molality of the nth substance listed, in mol/kg. As to conditions: 101 kPa, Liquid, m1 = 1.

Take `CC(=O)[O-].[Na+]` [sodium ethanoate] + O: the viscosity – broadly, the internal friction of a fluid under shear – by setting is: (303.15 K) 1.095 ± 0.028 mPa·s; (308.15 K) 1.005 ± 0.026 mPa·s; (313.15 K) 0.9052 ± 0.024 mPa·s; (318.15 K) 0.801 ± 0.021 mPa·s; (323.15 K) 0.721 ± 0.019 mPa·s.

Consider `CC(=O)[O-].CC(=O)[O-].[Ca+2]` [calcium acetate] + O, for which the viscosity is 1.545 ± 0.038 mPa·s and 1.563 ± 0.038 mPa·s (303.15 K); 1.412 ± 0.035 mPa·s (308.15 K); 1.265 ± 0.032 mPa·s (313.15 K); 1.127 ± 0.029 mPa·s (318.15 K); 0.999 ± 0.026 mPa·s (323.15 K).

With `CC(=O)[O-].[K+]` [potassium ethanoate] + O, the viscosity by setting is: (303.15 K) 0.975 ± 0.025 mPa·s; (308.15 K) 0.8864 ± 0.023 mPa·s; (313.15 K) 0.805 ± 0.021 mPa·s; (318.15 K) 0.719 ± 0.019 mPa·s; (323.15 K) 0.655 ± 0.018 mPa·s.
